Results on five compounds are retold here after patent US11963953B2, “Deuterated compounds for restoring mutant p53 function” (PMV Pharmaceuticals, Inc., priority 2022, dated 2024).

Data set [1] in a line: Pharmacokinetic analysis after single oral administration to male cynomolgus monkeys, with plasma levels of parent and glucuronidation metabolites. The settings on record: cynomolgus monkey, in vivo, 25 mg/kg. The procedure: The pharmacokinetics (PK) of a deuterated compound and a comparator compound were measured following a 2-phase single oral (PO) administration to male cynomolgus monkeys. Compound and metabolite levels were monitored for up to 48 hours following dosing.
A group of 3 non-naïve male cynomolgus monkeys were used in this 2-phase study with a 5-day washout period between each phase. Animals in Phases 1 or 2 were administered the compounds by single oral administration at 25 mg/kg. The vehicle used for the oral studies was 2% (w/v) hydroxypropylcellulose (HPC) w/v in water [“vehicle” ]. Administration was PO in fasted (overnight) animals. […] The body weights of the animals were in the range from 2.28 to 3.32 kg for males on the dosing day of Phase 1. All animals received a single oral gavage administration in each Phase.
Compound formulations were prepared in accordance with the following procedure: 257.0 mg of Compound C (4-[3-[4-[[(3S,4R)-3-fluoro-1-methyl-4-piperidyl]amino]-1-(2,2,2-trifluoroethyl)indol-2-yl]prop-2-ynylamino]-N-methyl-3-(methoxy)benzamide) was added to a pre-calibrated beaker, manually mixed with 1 mL of vehicle, stirred for 5 min to generate homogenous opaque suspension. An additional 40 mL of vehicle was added with manual mixing, and stirred for 5 min to generate a homogenous opaque suspension. An additional 9.218 mL of vehicle was added, and stirred overnight to generate a homogenous opaque suspension. 260.3 mg of Compound 3 (4-[3-[4-[[(3S,4R)-3-fluoro-1-methyl-4-piperidyl]amino]-1-(2,2,2-trifluoroethyl)indol-2-yl]prop-2-ynylamino]-N-methyl-3-(trideuteriomethoxy)benzamide) was added to a pre-calibrated beaker, manually mixed test article with 49.978 mL of vehicle, stirred for 30 min to generate a homogenous opaque suspension. Formulations were stored at room temperature for up to 15 days after preparation.
The detailed dosing and sampling regimens are described in the following table.
The concentrations of the compounds in all dosing solutions were determined by UPLC-UV [ACQUITY UPLC, ACQUITY UPLC BEH C8 1.7 m 2.1×100 mm Column, Mobile phase A: 0.1% FA & 2 mM HCOONH4 in water/ACN (v:v, 95:5), Mobile phase B: 0.1% FA & 2 mM HCOONH4 in ACN/water (v:v, 95:5)]. Three aliquots were taken from the bottom, middle and top regions of PO dosing solutions.
Plasma samples were collected at 0.25, 0.5, 1, 2, 4, 8, 12, 24 and 48 hours post-dose in Phases 1 and 2. Blank Plasma: Whole blood was collected from available stock animal into commercially available tubes containing K2-EDTA on wet ice and processed for plasma. The plasma was pooled to serve as blank monkey plasma. PK plasma: Approximately 0.5 mL of blood was collected at each time point via peripheral vessel from each study animal. The actual time for each sample collection was recorded. The deviations on sampling time were less than 1 minute for the time points pre-dose through 1 hour post-dose, and less than 5% of the nominal time for time points after 1 hour post-dose. All blood samples were transferred into commercial tube (Jiangsu Kangjian medical supplies Co., Ltd.) containing K2-EDTA (0.85-1.15 mg) and placed on wet ice until processed for plasma. Plasma samples were prepared within 1 hour of collection by centrifuging the blood samples at approximately 2-8° C., 3200×g for 10 minutes. Plasma samples of about 0.1 mL×2 aliquots (one for BA, and the other one for back up) for each time point were transferred into labeled polypropylene micro-centrifuge tubes and stored frozen in a freezer set to be maintained at −60° C. or lower until LC-MS/MS analysis. Concentrations of the compounds and metabolite in plasma samples were determined by a liquid chromatography tandem mass spectrometry (LC-MS/MS) method [Triple Quad 6500 Plus, ESI (+) ionization mode, MRM detection mode]. The plasma concentration of the compounds and metabolites in study animals was subjected to a non-compartmental pharmacokinetic analysis by using the Phoenix WinNonlin software (version 6.3 or above, Pharsight). […]

In another data set the target is T1, p53 Y220C (Homo sapiens, UniProt P04637, Y220C).
T1 construct: made in house; host or cells: E. coli
The experiment in a line: In vitro DNA binding activity assay (HTRF / TR-FRET) of recombinant His-tagged p53 Y220C DNA binding domain with biotin-labeled consensus DNA. It is filed as biochemical. The settings on record: concentration required to increase DNA binding activity of p53 Y220C by 50%. Here is the method:
The ability of a compound of the disclosure to stabilize p53 Y220C and increase the DNA binding activity of p53 Y220C was measured by a homogeneous time-resolved fluorescence (HTRF) assay. Recombinant His-tagged p53 Y220C used in the HTRF assay was expressed in the bacterium E. coli. The recombinant protein was a truncation mutant containing only amino acids 94-312 of p53, which encompassed the DNA binding domain (DBD) of p53 (SEQ ID NO.: 1). The His-tagged p53 Y220C was tested for DNA binding ability with a consensus sequence of DNA (DNA duplex with a sequence of 5 ¢-[…]-3 ¢; SEQ ID NO.: 2). SEQ ID NO.: 2 was then conjugated with a biotin label and used in the activity assay.
The binding of the recombinant His-tagged p53 Y220C protein and the biotin-labeled consensus DNA was measured using fluorescence resonance energy transfer (FRET). For the FRET assay, the binding between the p53 mutant and the DNA sequence was measured by detecting the fluorescence of the interaction between an anti-His antibody conjugated to allophycocyanin (APC) and streptavidin conjugated to europium to detect the biotin-labeled DNA.
The test compounds were prepared as 4.5 mM stock solutions in dimethyl sulfoxide (DMSO). The compounds of the disclosure were used to test the stabilization of p53 Y220C and increase in DNA binding activity of p53 Y220C. The stock solutions were then serially diluted 3-fold in DMSO, and 1.2 μL of the diluted solutions was added to each well of a 384-well polypropylene black plate. 30 μL of a 181 nM solution of the recombinant His-tagged p53 Y220C protein and 12.1 nM of APC conjugated anti-His tag antibody in ice-cold Assay Buffer 1 (50 mM Tris-HCl, pH 7.4; 75 mM KCl; 0.75 mM DTT; and 0.2 mg/mL bovine serum albumin (BSA) was added to each well containing the test compounds.
As a background control, […] of Assay Buffer 1 containing 12.1 nM of APC anti-His antibody was also added into a second set of serially-diluted compound plates. […] The assay signals were monitored by reading excitation at 340 nm, and emission fluorescence at 615 nm and 665 nm on a plate reader.
Normalized time-resolved fluorescence resonance energy transfer (TR-FRET) assay signal (Rn) was calculated by the formula: Rn=[(A-Ba-CD)/(D-Bd)](Dc-Bd) where A was the fluorescence intensity of the sample at 665 nm; D was the fluorescence intensity of the sample at 615 nm; Ba and Bd were plate background readings at 665 nm and 615 nm, respectively; and Dc was the fluorescence intensity of 1.8 nM Eu-SA in the assay buffer at 615 nm.
The cross-talk factor (C) was determined by the following formula: C═(Ac—Ba)/(Dc-Bd) where Ac was the fluorescence intensity of 1.8 nM Eu-labeled anti-FLAG antibody in the assay buffer at 665 nm. […] The SC150 values were calculated using either Prism™ or ActivityBase™.
For orientation: In TR-FRET formats the signal depends on donor and acceptor labels being close together.

As usually defined, the half-life is how long it takes for the measured level to halve. As for `[2H]C([2H])([2H])Oc1cc(C(=O)NC)ccc1NCC#Cc1cc2c(N[C@@H]3CCN(C)C[C@@H]3F)cccc2n1CC(F)(F)F` [Compound 3, 4-[3-[4-[[(3S,4R)-3-fluoro-1-methyl-4-piperidyl]amino]-1-(2,2,2-trifluoroethyl)indol-2-yl]prop-2-ynylamino]-N-methyl-3-(trideuteriomethoxy)benzamide], in data set [1], the “% of total analyte area, analyte Parent” value turned out to be 42.0%; the “AUC0-24 % Rel. to Cpd C value, analyte Parent” value came to 160%; the AUC(0-inf) amounted to 118 µg·h/mL; the AUCExtra amounted to 0.599%. Besides, in data set [1], the Cmax turned out to be 10000 ± 4180 ng/mL, the Tmax was determined as 2 h, the half-life is 6.37 h and the “increase in AUC over Compound C” value is “about 60%”. Also, in data set [1], the “reduction in glucuronidation metabolite (first named)” value is given as 70% and the “reduction in glucuronidation metabolite (second named)” value stood at 10%. In data set [1] (AUC0-24), the AUC(0-t) turned out to be 107 ± 29.2 µg·h/mL. For the same compound, the AUC(0-t) in data set [1] (AUC0-24, analyte Parent) was 107 µg·h/mL. For the same compound, the AUC(0-t) in data set [1] (AUC0-last) was found to be 118 µg·h/mL.

With `[2H]C([2H])([2H])Oc1cc(S(C)(=O)=O)ccc1NCC#Cc1cc2c(N[C@H]3CCN(C)C[C@H]3F)cccc2n1CC(F)(F)F` (racemic) [Compound 10, Rac-N-((3R,4S)-3-fluoro-1-methylpiperidin-4-yl)-2-(3-((2-(methoxy-d3)-4-(methylsulfonyl)phenyl)amino)prop-1-yn-1-yl)-1-(2,2,2-trifluoroethyl)-1H-indol-4-amine], at p53 Y220C, the SC150 entry is reported as “+++ (+++ = 0 nM < SC150 < 10 nM)”.

As for `[2H]C([2H])([2H])Oc1cc(S(C)(=O)=O)ccc1NCC#Cc1cc2c(N[C@@H]3CCN(C([2H])([2H])[2H])C[C@@H]3F)cccc2n1CC(F)(F)F` (racemic) [Compound 4, rac-N-[(3S,4R)-3-fluoro-1-(trideuteriomethyl)-4-piperidyl]-2-[3-[4-methylsulfonyl-2-(trideuteriomethoxy)anilino]prop-1-ynyl]-1-(2,2,2-trifluoroethyl)indol-4-ylamine], the SC150 result at p53 Y220C is “+++ (+++ = 0 nM < SC150 < 10 nM)”.

Turning to `[2H]C([2H])([2H])NC(=O)c1ccc(NCC#Cc2cc3c(N[C@@H]4CCN(C)C[C@@H]4F)cccc3n2CC(F)(F)F)c(OC)c1` [Compound 5, 4-[3-[4-[[(3S,4R)-3-fluoro-1-methyl-4-piperidyl]amino]-1-(2,2,2-trifluoroethyl)indol-2-yl]prop-2-ynylamino]-3-methoxy-N-(trideuteriomethyl)benzamide], the SC150 result on p53 Y220C is on record as “++ (++ = 10 nM < SC150 < 50 nM)”.

In the case of `[2H]C([2H])([2H])NC(=O)c1ccc(NCC#Cc2cc3c(N[C@@H]4CCN(C)C[C@@H]4F)cccc3n2CC(F)(F)F)c(OC([2H])([2H])[2H])c1` [Compound 6, 4-[3-[4-[[(3S,4R)-3-fluoro-1-methyl-4-piperidyl]amino]-1-(2,2,2-trifluoroethyl)indol-2-yl]prop-2-ynylamino]-3-(trideuteriomethoxy)-N-(trideuteriomethyl)benzamide], the SC150 entry on p53 Y220C is recorded as “+++ (+++ = 0 nM < SC150 < 10 nM)”.
